# Measurements reported in patent US20190365720A1, “Novel formulations of amidine substituted beta-lactam compounds on the basis of modified cyclodextrins and acidifying agents, their preparation and use as antimicrobial pharmaceutical compositions” (AiCuris Anti-Infective Cures GmbH, priority 2016, published 2019).
# “Also recorded” adds a separate entry of the source.
# Assays:
# [1] = Solubility of compound (I) in selected solvent systems by UPLC; assay type: physicochemical; conditions: aqueous with cosolvent or surfactant or cyclodextrin, thermodynamic from solid, 25° C.
# Procedure: To determine the solubility of a compound (I) in selected solvent systems in accordance with the invention, UPLC was used, and physicochemical properties such as pH and physical appearance were monitored. The solubility of compound (I) in solution was determined at 25° C. separately in following solvent systems at three time points (at 2 hours, at 6 hours and at 24 hours) in duplicates. 1) Hydroxypropyl-β-cyclodextrin solution (30% w/v) 2) Hydroxypropyl-β-cyclodextrin (30% w/v) solution containing 2% CA 3) Solvent mixture of PEG400 (40%)+2% CA (60%) To the vial for each time point 3 mL of individual solvent were added followed by addition of the weighed amount of compound (I) (100 mg). This system was kept for stirring on a magnetic stirrer at 700 rpm. At each time point, the solution was filtered through a […] syringe filter and analysed for the content of compound (I) using UPLC after suitable dilutions.
# [2] = Physical / in-use stability of solutions at room temperature; assay type: physicochemical
# [3] = Fraction bound to plasma protein in mice; assay type: in vitro ADME; conditions: mouse, read-out: Fraction bound to plasma protein (fp) (converted)
# [4] = Calculated fraction of compound (I) bound to SBE-β-CD in blood plasma after i.v. administration; set-up: species or system mice; conditions: after i.v. administration at time zero
# Procedure: On average, mice have 79 ml of blood per kg of body weight (see https://en.wikipedia.org/wiki/Blood_volume; Oct. 3, 2016). If the blood plasma is 55% of the total blood volume then mice have around 43 ml of plasma per kg of body weight. The dose was 25 mg/kg (0.037 mmoles/kg) of compound (I) and 156.5 mg/kg ([…]) of SBE-β-CD. After mixing with the blood plasma the initial plasma concentration should be 8.6.10^−4 M of compound (I) and 1.7.10^−3 M of SBE-β-CD.
# female rabbits = assay: Local tolerance after single intravenous infusion into the marginal ear vein; assay type: in vivo, rabbit
# Procedure: The aim of this example was to test the local tolerance of a compound (I) containing aqueous injectable solution in accordance with the invention in female rabbits following a single intravenous infusion for 30 or 60 minutes. Each animal received 15 mL of a formulation containing 5 mg compound (I) as API per mL into the marginal vein of the right ear. Two groups of 9 female animals, each, were employed with infusion durations of 30 or 60 minutes per dose. In addition, a placebo solution as vehicle control, was administered in the same volume and duration on the left ear of each animal. 24, 72 and 96 hours after administration respectively 3 animals per group were sacrificed and the injection sites were examined macro- and microscopically. The application formulations were freshly prepared on the administration day. The compound (I) and the placebo were dissolved in the vehicles to the appropriate concentrations: 15 mL of WFI were added to 1 compound (I) drug product vial and shaken well. The solution volume expanded to approximately 17 mL. The final concentration was approximately 29 mg/mL. Withdraw 17 mL from 100 mL of lactated Ringer's solution. Then add the reconstituted solution (approx. 17 mL from step 1). Mix well. The final concentration was approximately […]. Species: rabbit; Strain: New Zealand White Selection of species: the rabbit is a commonly used species for local tolerance studies. Number and sex of animals: 18 female animals Age (at start of administration): approx. 3 months Body weight (at start of administration): 2.31 to 2.73 kg Acclimatisation period: at least 20 acclimatisation days; 4 test days Routes of administration: single intravenous infusion into the marginal vein of the ear. Selection of routes of administration: according to clinical use via intravenous route. The compound (I) solutions were administered to the right ear, and the placebo solutions were administered to the left ear of each animal. Local reactions were inspected macroscopically 1 […] and 96 h after injection. The reactions were scored on the basis of DRAIZE, Appraisal of the Safety of Chemicals in Food, Drugs and Cosmetics, Association of Food and Drug Officials of the United States, Austin, Tex., 1959. The animals scheduled for the respective dissection day were sacrificed with pentobarbitol injection into an ear vein (not used for infusion). All animals were subjected to gross examination including the opening of the cranial, thoracic and abdominal cavities and the examination of the major organs. Particular attention was paid to the appropriate injection sites (test and control items). All abnormalities were recorded. Tissue abnormalities would have been preserved in 10% neutral buffered formalin. Histopathological examination was performed on treated infusion sites (compound (I) and placebo, 2 sites per animal) plus an untreated adjacent site from all animals. Tissue samples were fixed in 10% buffered formalin. Paraffin sections (3 to 5 μm) were prepared, stained with hematoxylin-eosin, and examined histologically.
# [5] = pH-dependent solubility of compound (I); assay type: physicochemical; conditions: 25 °C
# Procedure: The solubility profile of the API of a compound of formula (I) was measured at two different pH values (see […]): FIG. 23: pH solubility profile in pure water at 25° C.
smiles,measurement,setting,value
CC1(C)[C@H](NC(=O)/C(=N\O[C@@H](COc2ccc(C(=N)N[C@@H]3CCCNC3)cc2)C(=O)O)c2csc(N)n2)C(=O)N1OS(=O)(=O)O [compound (I)],solubility,[1]; 30% HP-β-CD plus 2% CA,16200 µg/mL
same,solubility,"[1]; hydroxypropyl-β-cyclodextrin solution (30% w/v), 30% HP-β-CD as sole excipient",2700 µg/mL
same,Stability after reconstitution,[2],6 h
same,fraction unbound,[3],0.779
same,Fraction of compound (I) free or bound to plasma proteins,[4],about 80%
same,Fraction of compound (I) bound to SBE-β-CD,"[4]; 25 mg/kg with 156.5 mg/kg SBE-β-CD, plasma pH 7.4",about 22%
same,Body weight,female rabbits; 15 mL of 5 mg/mL i.v. infusion,No influence on the body weight
same,Clinical signs,female rabbits; 15 mL of 5 mg/mL i.v. infusion,No clinical signs of toxicity
same,Necropsy findings,"female rabbits; 15 mL of 5 mg/mL i.v. infusion, 30 or 60 min",did not reveal any changes
same,Macroscopic changes at infusion sites,"female rabbits; 15 mL of 5 mg/mL i.v. infusion, 30 or 60 min, inspected 1 h to 96 h",did not reveal any changes
same,Microscopic (histopathological) changes at infusion sites,"female rabbits; 15 mL of 5 mg/mL i.v. infusion, 30 or 60 min, versus vehicle control sites",did not reveal any compound (I)-related changes; also recorded: did not cause any compound (I)-related histopathological changes
same,Compatibility following intravenous infusion,female rabbits; overall conclusion,very good compatibility
same,solubility,"[5]; pure water (pH-adjusted, no cyclodextrin), pH 7.4, aqueous buffer",1000 µg/mL
same,solubility,"[5]; pure water, aqueous buffer, pH 4.0",10000 µg/mL
